Where two headings read alike, the source gives them in different places.
Experiments:
Assay type in all cases: cell-based
[1] = tested on: DENV2 replicon; assay: DENV-2 Huh-7 Rep EC50 (replicon luminescence)
Procedure: In 384 well plates (Greiner, Cat #781091), compounds were acoustically transferred at 200 nl per well in a 8 compound (4 replicates) or 40 compound dose response format (3 replicates). For all plates tested, Balapiravir, GS-5734 and NITD008 were included as positive inhibition controls alongside 0% inhibition, DMSO-only negative control wells. Following compound addition, Huh-7 cells containing the DENV2 replicon construct were harvested following standard cell culture procedures and were adjusted to a concentration of 1.25E5 cells/mL in cell culture media composed of cDMEM without genticin. 40 μL of the cell stock was then added to each well for a final cell density of 5,000 cells/well. Cell and compound mixtures were incubated at 37° C./5% CO2 for 48 hours. Prior to harvesting cells, EnduRen Live Cell Substrate (Promega, Cat #E6481) was prepared by suspending 3.4 mg into 100 uL of DMSO to generate a 60 mM stock solution. The stock solution was then diluted 1:200 in pre-warmed cDMEM and 10 uL of this diluted solution was added to each well of the 384 well plates. Plates were then centrifuged at 500 rpm briefly and were placed on a plate shaker for 2 min. Following mixing, plates were incubated at […] for 1.5 hours prior to measuring luminescence on an Envision luminometer.

[2] = tested on: RSV strain A2; assay: microbe, parasite or virus in culture; settings: Table 3, HEp-2 cells, RSV A2, 4 days, read-out: RSV HEp-2 EC50
Summary of the method: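 Cytopathic-effect protection assay: HEp-2 cells (50,000/mL) infected with pre-titered RSV A2 onto 3-fold serial compound dilutions, incubated 4 days at 37° C. Cell viability read by CellTiter-Glo luminescence; percent inhibition derived against 0% and 100% virus-inhibition controls.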

[3] = tested on: RSV A2; assay: RSV NHBE EC50 (RSV A2 antiviral assay in NHBE cells); settings: Table 3, NHBE cells, RSV A2, 4 days, read-out: RSV NHBE EC50
Summary of the method: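 Antiviral protection in primary bronchial epithelial cells: RSV A2 (1×10^4.5 tissue culture infectious doses/mL) added right after compound, in 3-fold dilutions at 0.05% DMSO, to 7,500 attached cells per well. Cytopathic loss quantified as CellTiter-Glo luminescence after 4-day incubation at 37 °C.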

[4] = tested on: HRV16; assay: HRV16 HeLa EC50 (cytopathic effect in H1-HeLa cells)
Procedure: H1-HeLa cells, cultured in complete DMEM medium containing 10% heat-inactivated FBS and 1% Penicillin/Streptomycin, were seeded in 96 well plates at 3000 cells/well one day prior to compound dosing and infection. The antiviral activity of each compound was measured in triplicate. Compounds were added directly to the cell cultures in serial 3-fold dilutions using the HP300 digital dispenser (Hewlett Packard, Palo Alto, CA) immediately prior to infection. The plates were transferred to BSL-2 containment and the appropriate dilution of virus stock, previously determined by titration and prepared in cell culture media, was added to test plates containing cells and serially diluted compounds. Each plate included 6 wells of infected untreated cells and 6 wells of uninfected cells that served as 0% and 100% virus inhibition control, respectively. Following the infection, test plates were incubated for 96 h in a tissue culture incubator set to 33° C./5% CO2. Following incubation, the H1-HeLa cells were removed from incubation and allowed to equilibrate to 25° C. Cell viability was determined by removing 100 μL of culture medium and adding 100 μL of Cell-Titer Glo viability reagent. The mixtures were incubated on a shaker for 10 minutes at 25° C., and the luminescence signal was quantified on an Envision luminescence plate reader.

[5] = Dengue virus, DENV2, Huh-7, 48 h, read-out: DENV-2 REP Huh7 EC50
[6] = human respiratory syncytial virus, HEp-2, 96 h
[7] = human respiratory syncytial virus, NHBE, 96 h
[8] = 96 h, Table 3; H1-HeLa cells, 96 h; read-out: HRV16 HeLa EC50
[9] = Table 3, Huh-7 DENV2 replicon cells, 48 hours, read-out: DENV-2 REP Huh7 EC50
[10] = Table 3; H1-HeLa cells, 96 h; read-out: HRV16 HeLa EC50
[11] = Dengue virus, DENV2, Huh-7, 48 h, read-out: DENV-2 REP Huh7 EC50, Table 3, Huh-7 DENV2 replicon cells, 48 hours

Structure (SMILES)	EC50 [1, 5] [nM]	EC50 [2, 6] [nM]	EC50 [3, 7] [nM]	EC50 [4, 8] [nM]	EC50 [1, 9] [nM]	EC50 [2] [nM]	EC50 [3] [nM]	EC50 [4, 10] [nM]	EC50 [1, 11] [nM]	EC50 ([4]; 96 h, read-out: HRV16 HeLa EC50, Table 3; H1-HeLa cells, 96 h) [nM]
CCC(=O)O[C@H]1[C@H](c2ccc3c(N)ncnn23)O[C@](C#N)(COP(=O)(N[C@@H](C)C(=O)OC2COC2)Oc2ccccc2)[C@H]1OC(=O)CC (mixture of isomers) [Example 174, (2R,3S,4S,5S)-5-(4-aminopyrrolo[2,1-f][1,2,4]triazin-7-yl)-2-cyano-2-((((((S)-1-(oxetan-3-yloxy)-1-oxopropan-2-yl)amino)(phenoxy)phosphoryl)oxy)methyl) tetrahydrofuran-3,4-diyl dipropionate]	8310	100	20	97						
CCCOC(=O)[C@H](C)NP(=O)(OC[C@@]1(C#N)O[C@@H](c2ccc3c(N)ncnn23)[C@H](OC(=O)CC)[C@@H]1OC(=O)CC)Oc1ccccc1 (mixture of isomers) [Example 187]	5930	24	17	88						
COC(=O)[C@H](C)N[P@@](=O)(OC[C@@]1(C#N)O[C@@H](c2ccc3c(N)ncnn23)[C@H](OC(C)=O)[C@@H]1OC(C)=O)Oc1ccccc1 (single isomer, unassigned) [Example 130]	21000	198	59	1780						
COC(=O)[C@H](C)N[P@](=O)(OC[C@@]1(C#N)O[C@@H](c2ccc3c(N)ncnn23)[C@H](OC(C)=O)[C@@H]1OC(C)=O)Oc1ccccc1 (single isomer, unassigned) [Example 131]	19200	103	47	782						
COC(=O)[C@H](C)N[P@@](=O)(OC[C@@]1(C#N)O[C@@H](c2ccc3c(N)ncnn23)[C@H](OC(=O)C(C)C)[C@@H]1OC(=O)C(C)C)Oc1ccccc1 (single isomer, unassigned) [Example 139]	5240	39	8	97						
CCC(=O)O[C@H]1[C@H](c2ccc3c(N)ncnn23)O[C@](C#N)(CO[P@](=O)(N[C@@H](C)C(=O)OC)Oc2ccccc2)[C@H]1OC(=O)CC (single isomer, unassigned) [Example 142]	11100	93	16	352						
CC(=O)O[C@H]1[C@H](c2ccc3c(N)ncnn23)O[C@](C#N)(COP(=O)(N[C@@H](C)C(=O)OC2CCOCC2)Oc2ccccc2)[C@H]1OC(C)=O (single isomer, unassigned) [Example 165]					> 99700	405	165	1910		
C[C@H](NP(=O)(OC[C@@]1(C#N)O[C@@H](c2ccc3c(N)ncnn23)[C@H](OC(=O)C(C)(C)C)[C@@H]1OC(=O)C(C)(C)C)Oc1ccccc1)C(=O)OC1CCOCC1 (single isomer, unassigned) [Example 173]					16100	256	75	519		
CCC(=O)O[C@H]1[C@H](c2ccc3c(N)ncnn23)O[C@](C#N)(COP(=O)(N[C@@H](C)C(=O)OC2COC2)Oc2ccccc2)[C@H]1OC(=O)CC (single isomer, unassigned) [Example 175]					9510	87	17	85		
CCC(=O)O[C@H]1[C@H](c2ccc3c(N)ncnn23)O[C@](C#N)(COP(=O)(N[C@@H](C)C(=O)OC2COC2)Oc2ccccc2)[C@H]1OC(=O)CC (single isomer, unassigned) [Example 176]					9440	182	16	142		
CC(C)OC(=O)C(C)NP(=O)(OCC1(C#N)OC(c2ccc3c(N)ncnn23)C(OC(=O)C(C)C)C1OC(=O)C(C)C)Oc1ccc(C(=O)N(C)C)cc1 (single isomer, unassigned) [Example 178]					53200	633	163	1070		
CC(C)OC(=O)C(C)NP(=O)(OCC1(C#N)OC(c2ccc3c(N)ncnn23)C(OC(=O)C(C)C)C1OC(=O)C(C)C)Oc1ccc(C(=O)N(C)C)cc1 (single isomer, unassigned) [Example 179]					29400	161	100	731		
CCC(CC)COC(=O)[C@H](C)NP(=O)(N[C@@H](C)C(=O)OC1CCCCC1)OC[C@@]1(C#N)O[C@@H](c2ccc3c(N)ncnn23)[C@H](OC(C)=O)[C@@H]1OC(C)=O (stereo partly drawn) [Example 113, (2R,3S,4S,5S)-5-(4-Aminopyrrolo[2,1-f][1,2,4]triazin-7-yl)-2-cyano-2-((((((S)-1-(cyclohexyloxy)-1-oxopropan-2-yl)amino)(((S)-1-(2-ethylbutoxy)-1-oxopropan-2-yl)amino)phosphoryl)oxy)methyl)tetrahydrofuran-3,4-diyl diacetate]		1940							31900	4680
CC(=O)O[C@H]1[C@H](c2ccc3c(N)ncnn23)O[C@](C#N)(CO[P@](=O)(N[C@@H](C)C(=O)OCC2CCN(CC(F)(F)F)CC2)Oc2ccccc2)[C@H]1OC(C)=O [Example 120]					35200	163		1140		
CC(C)OC(=O)[C@H](C)NP(=O)(OCCS(C)(=O)=O)OC[C@@]1(C#N)O[C@@H](c2ccc3c(N)ncnn23)[C@H](OC(=O)C(C)C)[C@@H]1OC(=O)C(C)C (stereo partly drawn) [Example 210, (2R,3S,4S,5S)-5-(4-aminopyrrolo[2,1-f][1,2,4]triazin-7-yl)-2-cyano-2-((((((S)-1-isopropoxy-1-oxopropan-2-yl)amino)(2-(methylsulfonyl)ethoxy)phosphoryl)oxy)methyl)tetrahydrofuran-3,4-diyl bis(2-methylpropanoate)]		36300	3420						> 35400	
CC(C)C(=O)O[C@H]1[C@H](c2ccc3c(N)ncnn23)O[C@](C#N)(COP(=O)(N[C@@H](C)C(=O)OC2CCCC2)Oc2ccccc2)[C@H]1OC(=O)C(C)C (stereo partly drawn) [Example 254, (2R,3S,4S,5S)-5-(4-aminopyrrolo[2,1-f][1,2,4]triazin-7-yl)-2-cyano-2-((((((S)-1-(cyclopentyloxy)-1-oxopropan-2-yl)amino)(phenoxy)phosphoryl)oxy)methyl) tetrahydrofuran-3,4-diyl bis(2-methylpropanoate)]	29400	36	24							
CC(C)C(=O)O[C@H]1[C@H](c2ccc3c(N)ncnn23)O[C@](C#N)(COP(=O)(N[C@@H](C)C(=O)OC2CC2)Oc2ccccc2)[C@H]1OC(=O)C(C)C (stereo partly drawn) [Example 255, (2R,3S,4S,5S)-5-(4-aminopyrrolo[2,1-f][1,2,4]triazin-7-yl)-2-cyano-2-((((((S)-1-cyclopropoxy-1-oxopropan-2-yl)amino)(phenoxy)phosphoryl)oxy)methyl) tetrahydrofuran-3,4-diyl bis(2-methylpropanoate)]	2910	38	18							
COC(=O)[C@H](C)N[P@](=O)(OC[C@@]1(C#N)O[C@@H](c2ccc3c(/N=C/N(C)C)ncnn23)[C@H](OC(=O)C(C)C)[C@@H]1OC(=O)C(C)C)Oc1ccccc1 [Example 260, (2R,3S,4S,5S)-2-Cyano-5-(4-(((E)-(dimethylamino)methylene)amino)pyrrolo[2,1-f][1,2,4]triazin-7-yl)-2-((((S)-(((S)-1-methoxy-1-oxopropan-2-yl)amino)(phenoxy)phosphoryl)oxy)methyl) tetrahydrofuran-3,4-diyl bis(2-methylpropanoate)]	2800	41	12							
